Tests used:
Phospholipase A2 [1] = biological target: T1, Phospholipase A2 (Homo sapiens, UniProt P04054); assay: Inhibition of recombinant human secretory Phospholipase A2 (s-PLA2)
[2] = Inhibitory activity against recombinant human secretory Phospholipase A2 (s-PLA2) by phosphatidylcholine/deoxycholate assay(PC/DOC).
Phospholipase A2 [3] = biological target: T1, Phospholipase A2; assay: Inhibition of recombinant human secretory phospholipase A2 (sPLA2), chromogenic screening assay.
[4] = Inhibitory activity against recombinant human secretory phospholipase A2 (s-PLA2) by phosphatidylcholine/deoxycholate assay (PC/DOC).

T1 sequence (P04054 whole entry): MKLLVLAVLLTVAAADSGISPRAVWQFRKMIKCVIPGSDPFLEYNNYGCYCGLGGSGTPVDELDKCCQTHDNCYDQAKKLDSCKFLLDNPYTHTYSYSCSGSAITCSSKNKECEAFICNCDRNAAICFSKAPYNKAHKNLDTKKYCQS

Row | SMILES | IC50 (Phospholipase A2 [1]) | IC50 [2] | IC50 (Phospholipase A2 [3]) | IC50 [4]
1 | CC1C(CC(N)=O)=C2C(OCC(=O)O)=CC=CN2C1Cc1ccccc1 (centres undefined) [(3-Benzyl-1-carbamoylmethyl-2-methyl-2,3-dihydro-indolizin-8-yloxy)-acetic acid] | 12000 nM |  |  | 
2 | CCC1C(CC(N)=O)=C2C(OCC(=O)O)=CC=CN2/C1=C\c1cccc2ccccc12 (centres undefined) [{1-Carbamoylmethyl-2-ethyl-3-[1-naphthalen-1-yl-meth-(Z)-ylidene]-2,3-dihydro-indolizin-8-yloxy}-acetic acid] | 25 nM | 130 µM |  | 
3 | CCc1c(C(=O)C(N)=O)c2c(OCc3ccc4ccccc4n3)cccn2c1Cc1ccccc1-c1ccccc1 [2-[3-Biphenyl-2-ylmethyl-2-ethyl-8-(quinolin-2-ylmethoxy)-indolizin-1-yl]-2-oxo-acetamide] | 55 nM |  |  | 
4 | COC(=O)CCCOC1=CC=CN2C1=C(CC(N)=O)C(C)C2Cc1ccccc1 (centres undefined) [4-(3-Benzyl-1-carbamoylmethyl-2-methyl-2,3-dihydro-indolizin-8-yloxy)-butyric acid methyl ester] | 15000 nM |  |  | 
5 | CCC1C(C(N)=O)=C2C(OCC(=O)O)=CC=CN2/C1=C\c1ccccc1Cc1ccccc1 (centres undefined) [{3-[1-(2-Benzyl-phenyl)-meth-(Z)-ylidene]-1-carbamoyl-2-ethyl-2,3-dihydro-indolizin-8-yloxy}-acetic acid] | 400 nM |  |  | 
6 | CCC1C(CC(N)=O)=C2C(OCC(=O)O)=CC=CN2/C1=C\c1cccc(Cl)c1 (centres undefined) [{1-Carbamoylmethyl-3-[1-(3-chloro-phenyl)-meth-(Z)-ylidene]-2-ethyl-2,3-dihydro-indolizin-8-yloxy}-acetic acid] | 200 nM |  |  | 
7 | CCC1C(CC(N)=O)=C2C(OCC(=O)O)=CC=CN2/C1=C\c1cccc(C(F)(F)F)c1 (centres undefined) [{1-Carbamoylmethyl-2-ethyl-3-[1-(3-trifluoromethyl-phenyl)-meth-(Z)-ylidene]-2,3-dihydro-indolizin-8-yloxy}-acetic acid] | 240 nM |  |  | 
8 | CCc1c(C(=O)C(N)=O)c2c(OCn3ncnn3)cccn2c1Cc1cccc(Cl)c1 [2-[3-(3-Chloro-benzyl)-2-ethyl-8-(4H-tetrazol-2-ylmethoxy)-indolizin-1-yl]-2-oxo-acetamide] | 30 nM | 45 µM |  | 
9 | CCC1C(CC(N)=O)=C2C(OCC(=O)O)=CC=CN2/C1=C\c1ccccc1 (centres undefined) [{1-Carbamoylmethyl-2-ethyl-3-[1-phenyl-meth-(Z)-ylidene]-2,3-dihydro-indolizin-8-yloxy}-acetic acid] | 160 nM |  |  | 
10 | CCc1c(C(=O)C(N)=O)c2c(OCC(=O)O)cccn2c1Cc1cccs1 [(1-Aminooxalyl-2-ethyl-3-thiophen-2-ylmethyl-indolizin-8-yloxy)-acetic acid] |  |  | 11 nM | 13 nM
11 | CC1C(C(N)=O)=C2C(OCC(=O)O)=CC=CN2/C1=C\c1ccccc1 (centres undefined) [{1-Carbamoyl-2-methyl-3-[1-phenyl-meth-(Z)-ylidene]-2,3-dihydro-indolizin-8-yloxy}-acetic acid] | 420 nM |  |  | 
12 | CCC1C(CC(N)=O)=C2C(OCC(=O)O)=CC=CN2/C1=C\c1cccc(Cl)c1Cl (centres undefined) [{1-Carbamoylmethyl-3-[1-(2,3-dichloro-phenyl)-meth-(Z)-ylidene]-2-ethyl-2,3-dihydro-indolizin-8-yloxy}-acetic acid] | 67 nM |  |  | 
13 | CCCC(C)Cc1c(CC)c(C(=O)C(N)=O)c2c(OCC(=O)O)cccn12 (centres undefined) [[1-Aminooxalyl-2-ethyl-3-(2-methyl-pentyl)-indolizin-8-yloxy]-acetic acid] |  |  | 17 nM | 78 nM
14 | CC1C(CC(N)=O)=C2C(OCCCC(=O)O)=CC=CN2/C1=C\c1ccccc1 (centres undefined) [4-{1-Carbamoylmethyl-2-methyl-3-[1-phenyl-meth-(Z)-ylidene]-2,3-dihydro-indolizin-8-yloxy}-butyric acid] | 910 nM |  |  | 
15 | CCC1C(CC(N)=O)=C2C(OCC(=O)O)=CC=CN2/C1=C\c1ccc2ccccc2c1 (centres undefined) [{1-Carbamoylmethyl-2-ethyl-3-[1-naphthalen-2-yl-meth-(Z)-ylidene]-2,3-dihydro-indolizin-8-yloxy}-acetic acid] | 170 nM |  |  | 
16 | CCc1c(C(=O)C(N)=O)c2c(OCCC(=O)O)cccn2c1Cc1ccccc1-c1ccccc1 [3-(1-Aminooxalyl-3-biphenyl-2-ylmethyl-2-ethyl-indolizin-8-yloxy)-propionic acid] |  |  | 44 nM | 130 nM
17 | CCc1c(CC(N)=O)c2c(OCC(=O)O)cccn2c1Cc1ccccc1 [(3-Benzyl-1-carbamoylmethyl-2-ethyl-indolizin-8-yloxy)-acetic acid] |  |  | 13 nM | 28 nM
18 | CCc1c(C(=O)C(N)=O)c2c(OCC(=O)O)cccn2c1Cc1cccc(C(F)(F)F)c1 [[1-Aminooxalyl-2-ethyl-3-(3-trifluoromethyl-benzyl)-indolizin-8-yloxy]-acetic acid] |  |  | 9 nM | 3 nM
19 | CCCCc1ccc(Cc2c(CC)c(C(=O)C(N)=O)c3c(OCC(=O)O)cccn23)cc1 [[1-Aminooxalyl-3-(4-butyl-benzyl)-2-ethyl-indolizin-8-yloxy]-acetic acid] |  |  | 11 nM | 5 nM
20 | CCc1c(C(=O)C(N)=O)c2c(OCC(=O)OC)cccn2c1Cc1cccc(-c2ccccc2)c1 [(1-Aminooxalyl-3-biphenyl-3-ylmethyl-2-ethyl-indolizin-8-yloxy)-acetic acid methyl ester] |  |  | 9 nM | 4.2 nM
21 | Cc1c(C(=O)C(N)=O)c2c(OCC(=O)O)cccn2c1CC1CCCC1 [(1-Aminooxalyl-3-cyclopentylmethyl-2-methyl-indolizin-8-yloxy)-acetic acid] |  |  | 14 nM | 22 nM
22 | Cc1c(C(=O)C(N)=O)c2c(OCC(=O)O)cccn2c1Cc1ccccc1 [(1-Aminooxalyl-3-benzyl-2-methyl-indolizin-8-yloxy)-acetic acid] |  |  | 8 nM | 3 nM
23 | CCC1C(CC(N)=O)=C2C(OCC(=O)O)=CC=CN2/C1=C\c1ccccc1-c1ccccc1 (centres undefined) [{3-[1-Biphenyl-2-yl-meth-(Z)-ylidene]-1-carbamoylmethyl-2-ethyl-2,3-dihydro-indolizin-8-yloxy}-acetic acid] | 100 nM | 420 µM |  | 
24 | CCCCC[C@H]1CCCC(Cc2c(CC)c(C(=O)C(N)=O)c3c(OCC(=O)O)cccn23)C1 (stereo partly drawn) [[1-Aminooxalyl-2-ethyl-3-((S)-3-pentyl-cyclohexylmethyl)-indolizin-8-yloxy]-acetic acid] |  |  | 25 nM | 20 nM
25 | NC(=O)C(=O)c1c(C2CC2)c(Cc2ccccc2)n2cccc(OCC(=O)O)c12 [(1-Aminooxalyl-3-benzyl-2-cyclopropyl-indolizin-8-yloxy)-acetic acid] |  |  | 46 nM | 49 nM
